Data on 37 compounds can be found in ChEMBL document CHEMBL1122344, “Pyridazinones. 2. Synthesis and antisecretory and antiulcer activities of thiourea and 2-cyanoguanidine derivatives” (1983).

Test [1] concerns Rattus norvegicus. The test is described as follows: Gastric antisecretory activity at the dose of 100 mg/kg in pylorus lygated rats. The class given is functional.
The species named for test [2] is Rattus norvegicus. The test is described as follows: Dose required to inhibit gastric secretory activity in pylorus lygated rats. The class given is functional. To be noted: Stomach.

With `CC/N=C(\S)NCCCCCn1nc(-c2ccccc2)ccc1=O`, the inhibition in vivo (as a rule, the drop in the measured response relative to a control, in per cent) at 100 mg/kg in test [1] was found to be 66.4%. In test [2], the 50% effect level (ED50) was put at a dose of 51.8 mg/kg.
The matching figures for `CN/C(=N/CCCCn1nc(-c2ccc(OC)cc2)ccc1=O)NC#N`: 48.5% and > 100 mg/kg.
`C/N=C(/NC#N)NCCCCn1nc(-c2ccccc2)c(C)cc1=O`: in test [1], the inhibition in vivo at 100 mg/kg stood at 46.4%. Moreover, in test [2], the ED50 (in general, the dose at which the effect has come halfway, by size or by number of responders) was > 100 mg/kg.
With `O=c1ccc(-c2ccccc2)nn1CCNC(=S)NC1CCCCC1`, in test [1], the inhibition in vivo at 100 mg/kg came out at 12.3%.
Consider `C/N=C(\S)NCCn1nc(C)ccc1=O`, for which, in test [1], the inhibition in vivo at 100 mg/kg was found to be 6%.
As to `C/N=C(/NC#N)NCCCCn1nc(-c2ccc(Cl)cc2)ccc1=O`, the inhibition in vivo at 100 mg/kg in test [1] stood at 51%. Also, the ED50 in test [2] worked out at 100 mg/kg.
In the case of `CC(C)(C)/N=C(\S)NCCCCn1nc(-c2ccccc2)ccc1=O`, the inhibition in vivo at 100 mg/kg in test [1] worked out at 33.6%. Moreover, the 50% effective dose (ED50) in test [2] is > 100 mg/kg.
On to `C/N=C(/NC#N)NCCCCn1nc(N2CCOCC2)ccc1=O`, for which the inhibition in vivo at 100 mg/kg in test [1] is -10.2%.
For the compound `C/N=C(/NC#N)NCCCn1nc(C)ccc1=O`, in test [1], the inhibition in vivo at 100 mg/kg was 6.8%.
`C/N=C(/NC#N)NCCCCn1nc(N2CCN(C)CC2)ccc1=O`: the inhibition in vivo at 100 mg/kg in test [1] came to 7.9%.
In the case of `O=c1ccc(-c2ccccc2)nn1CCCCNC(=S)NCc1ccccc1`, the inhibition in vivo at 100 mg/kg in test [1] came out at 5.4%.
On the same count and under the same terms, as for `CC/N=C(\S)NCCn1nc(-c2ccccc2)ccc1=O`, the figure is 8.1%.
As to `CC/N=C(/NC#N)NCCCn1nc(-c2ccccc2)cc(C)c1=O`, the inhibition in vivo at 100 mg/kg in test [1] worked out at 23.5%.
As for `C/N=C(\S)NCCCCCn1nc(C)ccc1=O`, the inhibition in vivo at 100 mg/kg in test [1] came to 3.2%.
As to `CC/N=C(\S)NCCCCCCn1nc(-c2ccccc2)ccc1=O`, the inhibition in vivo at 100 mg/kg in test [1] was -5.6%.
Consider `N#CNC(=N)NCCn1nc(-c2ccccc2)ccc1=O`, for which the inhibition in vivo at 100 mg/kg in test [1] is 18.5%.
Turning to `C/N=C(\NC#N)NCCCCn1nc(-c2ccccc2)ccc1=O`, the inhibition in vivo at 100 mg/kg in test [1] turned out to be 79%.
The same measure, in the same setting: as for `O=c1ccc(-c2ccccc2)nn1CCNC(=S)Nc1ccccc1`, the figure is -3.4%; as for `O=c1ccc(-c2ccccc2)nn1CCCCNC(=S)NC1CCCCC1`, 18.1%; as for `O=c1ccc(-c2ccccc2)nn1CCCNC(=S)Nc1ccccc1`, 12.1%.
For the compound `O=c1ccc(-c2ccccc2)nn1CCCNC(=S)NC1CCCCC1`, the inhibition in vivo at 100 mg/kg in test [1] came to 23.6%.
Same read-out and setting: as for `C/N=C(/NC#N)NCCCCn1nc(N2CCCC2)ccc1=O`, the figure is -1%; as for `C#CCN/C(=N/CCCCn1nc(-c2ccccc2)ccc1=O)NC#N`, -12.9%; as for `N#CNC(=N)NCCCCCCn1nc(-c2ccccc2)ccc1=O`, 20.5%.
In the case of `C/N=C(\S)NCCCCCCn1nc(-c2ccccc2)ccc1=O`, the inhibition in vivo at 100 mg/kg in test [1] is 22.2%.
Regarding `N#CN/C(=N\CCCCn1nc(-c2ccccc2)ccc1=O)NCCc1ccccc1`, in test [1], the inhibition in vivo at 100 mg/kg worked out at 0.3%.
Still for that read-out and setting: as for `C/N=C(/NC#N)NCCCCCn1nc(C)ccc1=O`, the figure is 14.9%.
For `C/N=C(\S)NCCCn1nc(C)ccc1=O`, in test [1], the inhibition in vivo at 100 mg/kg was -8.2%.
Still for that read-out and setting: as for `O=c1ccc(-c2ccccc2)nn1CCCC/N=C(\S)Nc1ccc(S(=O)(=O)O)cc1`, the figure is 25.1%; as for `C#CCN/C(=N/CCCn1nc(-c2ccccc2)ccc1=O)NC#N`, -11.8%; as for `CC/N=C(/NC#N)NCCCCn1nc(C)ccc1=O`, 13.5%.
In the case of `CC/N=C(/NC#N)NCCCn1nc(-c2ccccc2)c(C)cc1=O`, in test [1], the inhibition in vivo at 100 mg/kg was 0.2%.
Same read-out and setting: as for `C/N=C(/NC#N)NCCCn1nc(-c2ccccc2)c(C)cc1=O`, the figure is 17.2%; as for `C/N=C(/NC#N)NCCn1nc(-c2ccccc2)ccc1=O`, -3.5%.
In the case of `C/N=C(\S)NCCCCCCn1nc(C)ccc1=O`, the inhibition in vivo at 100 mg/kg in test [1] was -12.5%.
Same read-out and setting: as for `CCC/N=C(/NC#N)NCCCn1nc(C)ccc1=O`, the figure is 17.5%; as for `C/N=C(\S)N(C)CCCCn1nc(-c2ccccc2)ccc1=O`, 17.5%.
